Entries after “also recorded” stand apart in the source; their conditions may differ.
Key:
Salmonella sp. = test: Paper disk method microbicidal test; assay type: cell-based; settings: for size of the inhibition ring: 0 mg/mL control: 12.35 (flavone, 40% DMSO), — (catechin)
Procedure: (§1) As microbicidal test method for 5,7,4′-trihydroxy-3′,5′-dimethoxyflavone, the paper disk method was employed, by which method the microbicidal activity can be judged even in cases where a solvent has some influences.
(§2) In paper disk method, sample solutions having various sample concentration are prepared, and the sample solution was absorbed in a special paper disk, followed by drying the paper disk. Onto the plate which is made by mixing a prepared bacterial suspension with agar medium, the paper disks are placed. If the sample has a microbicidal activity, the inhibition ring which indicates the inhibition of bacterial growth is formed such that the center of the ring is coincident with the paper disk. The degree of a microbicidal activity is judged based on the size of the inhibition ring.
(§3) First, 4 mg of 5,7,4′-trihydroxy-3′,5′-dimethoxyflavone sample was dissolved in 200 μL to prepare 20 mg/mL sample solution. To 100 μL of this 20 mg/mL sample solution, 100 μL of sterilized water was added to prepare 200 μL of 10 mg/mL sample solution. To the solution, 60 μL DMSO and 140 μL of sterilized water were added to prepare 400 μL of 5.0 mg/mL sample solution. DMSO was used in the concentration of 40%, because the sample precipitated from 30% DMSO. To 350 μL of 5.0 mg/mL sample solution, 140 μL DMSO and 210 μL of sterilized water were added to prepare 700 μL of 2.5 mg/mL sample solution. In the same manner, 1.25 mg/mL and 0.625 mg/mL sample solutions were prepared. As a control, a solution containing 40% DMSO and 60% sterilized water was prepared. […] In a paper disk (8.12 mm diameter), 70 μL of these solutions each was absorbed, and the paper disks were dried for a day.
(§4) As test bacteria, Staphylococcus aureus, Salmonella sp., Yersinia enterocolitica, Pseudomonas aeruginosa, and Candida sp. were used. These bacteria were mixed with 2 mL of sterilized water to prepare bacterial suspensions having turbidity 1 (10^8/mL). The plate agar was made by mixing 0.2 mL of the bacterial suspension with 19.8 mL of BHI medium. The dried paper disk was placed onto the plate agar, and the plate was incubated in an incubator at 37° C., followed by assessing the activity. In the Table, (-) represents that no microbicidal activity was observed.

Pseudomonas aeruginosa = test: Paper disk method microbicidal test; assay type: cell-based; settings: for size of the inhibition ring: 0 mg/mL control: 12.33 (flavone, 40% DMSO), — (catechin)
Procedure: as §1, §2, §3, §4

Yersinia enterocolitica = test: Paper disk method microbicidal test; assay type: cell-based; settings: 0 mg/mL control: 15.65 (flavone, 40% DMSO), — (catechin)
Procedure: as §1, §2, §3, §4

Candida sp. = test: Paper disk method microbicidal test; assay type: cell-based; settings: 0 mg/mL control: 11.86 (flavone, 40% DMSO), — (catechin)
Procedure: as §1, §2, §3, §4

[1] = Solubility in DMSO observed during sample preparation; assay type: physicochemical; settings: 30% DMSO; 40% DMSO used instead
Procedure: First, 400 mg of sample was dissolved in 1 mL of DMSO to prepare 400 mg/mL sample solution. Then 0.5 mL of this 400 mg/mL sample solution was diluted 2-fold to prepare 200 mg/mL sample solution. In the same manner, sample solutions of 100 mg/mL, 50.0 mg/mL, and 25.0 mg/mL were prepared. In addition, 300 mg/mL sample solution was prepared. Thereafter, 0.2 mL of these sample solutions each was mixed with 19.8 mL of BHI (Brain Heart Infusion Agar, Becton Dickinson, MD) medium, thereby preparing agar plates having the sample concentration of 4.0 mg/mL, 3.0 mg/mL, 2.0 mg/mL, 1.0 mg/mL, 0.5 mg/mL, and 0.25 mg/mL in dishes. […] Sterilized water was used for dissolving catechin, because catechin was insoluble in DMSO.
First, 4 mg of 5,7,4′-trihydroxy-3′,5′-dimethoxyflavone sample was dissolved in 200 μL to prepare 20 mg/mL sample solution. To 100 μL of this 20 mg/mL sample solution, 100 μL of sterilized water was added to prepare 200 μL of 10 mg/mL sample solution. To the solution, 60 μL DMSO and 140 μL of sterilized water were added to prepare 400 μL of 5.0 mg/mL sample solution. DMSO was used in the concentration of 40%, because the sample precipitated from 30% DMSO. To 350 μL of 5.0 mg/mL sample solution, 140 μL DMSO and 210 μL of sterilized water were added to prepare 700 μL of 2.5 mg/mL sample solution. In the same manner, 1.25 mg/mL and 0.625 mg/mL sample solutions were prepared. […]

[2] = 0.625 mg/mL solution on 8.12 mm paper disk
[3] = 1.25 mg/mL solution on 8.12 mm paper disk
[4] = 2.5 mg/mL solution on 8.12 mm paper disk

## COc1cc(-c2cc(=O)c3c(O)cc(O)cc3o2)cc(OC)c1O [5,7,4′-Trihydroxy-3′,5′-Dimethoxyflavone, 5,7,4′-trihydroxy-3′,5′-dimethoxyflavone]
Salmonella sp.; [2]
  size of the inhibition ring: 12.35
Salmonella sp.; [3]
  size of the inhibition ring: 13.82
Salmonella sp.; [4]
  size of the inhibition ring: 16.65
Salmonella sp.; paper disk method
  microbicidal activity (in words): had a microbicidal activity; also recorded: very strong even compared to catechin
Pseudomonas aeruginosa; [2]
  size of the inhibition ring: 15.46
Pseudomonas aeruginosa; [3]
  size of the inhibition ring: 18.54
Pseudomonas aeruginosa; [4]
  size of the inhibition ring: 19.20
Pseudomonas aeruginosa; paper disk method
  microbicidal activity (in words): had a microbicidal activity; also recorded: very strong even compared to catechin
Yersinia enterocolitica; [2]
  size of the inhibition ring: 15.67
Yersinia enterocolitica; [3]
  size of the inhibition ring: 15.76
Yersinia enterocolitica; [4]
  size of the inhibition ring: 15.76
Candida sp.; [2]
  size of the inhibition ring: 11.86
Candida sp.; [3]
  size of the inhibition ring: 12.30
Candida sp.; [4]
  size of the inhibition ring: 11.90
[1]
  solubility in aqueous DMSO: precipitated
